Source: patent US3981999A, “Fish disease treatment” (Dainippon Pharmaceutical Co., Ltd., priority 1973, dated 1976)
In brackets after ≈: the same amount, converted by molar mass.

Legend:
[1] = tested on: Aeromonas liquefaciens Y-62; test: MIC by broth serial dilution; format: cell-based; conditions: Aeromonas hydrophila, Y62; bouillon pH 7.2, 25°C, 48 hours; read-out: MIC
Description: (§1) The MIC (minimum inhibitory concentration) of a test compound was determined by the serial dilution method on various pathogenic microorganisms incubated under the following experimental conditions. The lowest concentration at which the visible growth of the organism was inhibited was considered as MIC. […]
(§2) the broth-dilution method bouillon, pH 7.2, except for Vibrio (3% NaCl-bouillon, pH 7.2), Pasteurella (2% NaCl-Brain Heart Infusion, pH 7.3 and Chondrococcus (TY medium, pH 7.3) 1 drop of a bacterial suspension per test tube (100 - 1000 minimal growing units in the medium) 25°C, except for Pseud. anguilliseptica (20°C)
(§3) 48 hours, except for Pseudo. anguilliseptica ([…])

[2] = tested on: Aeromonas salmonicida Hara-2; test: MIC by broth serial dilution; format: cell-based; conditions: HARA2, bouillon pH 7.2, 25°C, 48 hours, read-out: MIC
Description: as §1, §2, §3

[3] = tested on: Aeromonas salmonicida Kusuda; test: MIC by broth serial dilution; format: cell-based; conditions: bouillon pH 7.2, 25°C, 48 hours, read-out: MIC
Description: as §1, §2, §3

Vibrio anguillarum K-3 = test: MIC by broth serial dilution; format: cell-based; conditions: K3, 3% NaCl-bouillon pH 7.2, 25°C, 48 hours, read-out: MIC
Description: as §1, §2, §3

Vibrio anguillarum Km-30 = test: MIC by broth serial dilution; format: cell-based; conditions: KM30, 3% NaCl-bouillon pH 7.2, 25°C, 48 hours, read-out: MIC
Description: as §1, §2, §3

[4] = tested on: Aeromonas liquefacieus Y-62; test: Oral effect against Aeromonas infection in goldfish; format: in vivo; conditions: for Percent survival: 5 days; for Number of surviving fish after 1 day / Number of surviving fish after 2 days / Number of surviving fish after 3 days / Number of surviving fish after 4 days / Number of surviving fish after 5 days: day 0: PA 10, others 5 fish
Description: Goldfish each weighing about 6 - 7 g were given a fish food containing each of the test compounds. After 30 minutes, the fish were infected intramuscularly with Aeromonas liquefacieus Y-62 (about 10^7 germs/fish) under ether anesthesia. […] In the same manner, the control group was given the same fish food without the test compound.

[5] = tested on: Aeromonas liquefaciens Y-62; test: Bathing effect against Aeromonas infection in goldfish; format: in vivo; conditions: for Percent survival: 5 days; for Number of survival after 1 day / Number of survival after 2 days / Number of survival after 3 days / Number of survival after 4 days / Number of survival after 5 days: day 0: 6 fish
Description: Goldfish each weighing about 8 g were infected intramuscularly with Aeromonas liquefaciens Y-62 (10^7 germs/fish) under ether anesthesia. The fish were grouped and each group was placed in 6 liters of fresh water (23° to 27°C.) containing PA in the amount indicated in Table 3.
Then, observation was made for the following 5 days. In the same manner, the control group was placed in 6 liters of fresh water without any test compound incorporated in it.

goldfish [6] = test: Oral toxicity in goldfish; format: in vivo; conditions: 10% in diet (PA 800, AT-1493 955, AT-1557 935, AT-1475 923 mg/kg)
Description: A diet containing 10% of each of the test compounds was given orally to groups each consisting of 5 goldfish each weighing 6 to 10 g, and observation was made for the following 7 days. The temperature of the water was maintained at 28°C.

eels = test: Oral toxicity in eels; format: in vivo, eels (Anguilla Japonica); conditions: oral 2000 mg/kg, 7 days, 10 eels per group, 27° to 27.5°C
Description: A suspension of PA in 0.2% carboxymethylcellulose was orally given to groups each consisting of 10 eels (Anguilla Japonica, about 160 g) and observation was made for the following 7 days. The temperature of the water was kept at 27° to 27.5°C.

[7] = Bathing toxicity in goldfish; format: in vivo; conditions: fresh water; goldfish, bathing for 5 days, 27° to 30°C; read-out: LC50 (50% lethal concentration)
Description: (§4) Groups of goldfish each weighing 7 to 8 g (each group consisting of 6 goldfish) were placed in 6 liters of fresh water (27° to 30°C.) containing PA in varying concentrations with aeration for 5 days. During this time, observation was made.

goldfish [8] = test: Bathing toxicity in goldfish; format: in vivo; conditions: for Mortality: 5 days; for Number of the survival after 1 day / Number of the survival after 2 days / Number of the survival after 3 days / Number of the survival after 4 days / Number of the survival after 5 days: day 0: 6 fish
Description: as §4

[9] = tested on: Aeromonas liquefaciens Y-62; test: Oral administration to eels starting the day before Aeromonas infection; format: in vivo, eels (Anguilla Japonica); conditions: oral 1.56 mg/kg/day for 2 days starting the day before infection; seventh day
Description: Groups of eels (Anguilla Japonica, average weight 100 g) (each group consisting of 50 fish) were infected intramuscularly with Aeromonas liquefaciens Y-62 (10^9 germs/fish). For 2 days starting at the day before infection, a suspension consisting of a diet containing PA was orally administered to the eels using a catheter at a dose of 1.56 mg/kg/day. On the seventh day after the infection, the eels were observed.
During the experimental period, the temperature of the water was maintained at 25° to 26°C.

[10] = tested on: Aeromonas liquefaciens Y-62; test: Oral administration to eels after Aeromonas infection; format: in vivo, eels (Anguilla Japonica); conditions: oral 3.1 mg/kg/day at 4 hours after infection and next day; seventh day
Description: Groups of eels (Anguilla Japonica, average weight 100 g) (each group consisting of 50 eels) were infected intramuscularly with Aeromonas liquefaciens Y-62 (10^9 germs/fish). A suspension consisting of a diet containing PA was orally administered to the eels at 4 hours after the infection and on the next day, using a catheter, at a dose of 3.1 mg/kg/day.
The temperature of the water was kept at 25° to 26°C. during the entire experimental period.

[11] = 0.03% in diet (PA 2.5, AT-1493 2.5, AT-1557 2.2 mg/kg)
[12] = 0.1% in diet (PA 6.1, AT-1493 7.5, AT-1557 7.6, AT-1475 7.5 mg/kg)

## CCn1cc(C(=O)O)c(=O)c2cnc(N3CCCC3)nc21 [PA, 5,8-dihydro-2-pyrrolidino-8-ethyl-5-oxopyrido[2,3-d]pyrimidine-6-carboxylic acid]
[1]
  MIC: 1 µg/mL (≈ 3.47 µM)
[2]
  MIC: 1 µg/mL (≈ 3.47 µM)
[3]
  MIC: 0.1 µg/mL (≈ 0.347 µM)
Vibrio anguillarum K-3
  MIC: 1 µg/mL (≈ 3.47 µM)
Vibrio anguillarum Km-30
  MIC: 3 µg/mL (≈ 10.4 µM)
[4]; [11]
  Percent survival: 60%
  Number of surviving fish after 1 day: 10
  Number of surviving fish after 2 days: 9
  Number of surviving fish after 3 days: 7
  Number of surviving fish after 4 days: 6
  Number of surviving fish after 5 days: 6
[4]; [12]
  Percent survival: 100%
  Number of surviving fish after 1 day: 10
  Number of surviving fish after 2 days: 10
  Number of surviving fish after 3 days: 10
  Number of surviving fish after 4 days: 10
  Number of surviving fish after 5 days: 10
[5]; bathing conc. 0.5 μg/ml
  Percent survival: 100%
  Number of survival after 1 day: 6
  Number of survival after 2 days: 6
  Number of survival after 3 days: 6
  Number of survival after 4 days: 6
  Number of survival after 5 days: 6
[5]; bathing conc. 1 μg/ml
  Percent survival: 100%
  Number of survival after 1 day: 6
  Number of survival after 2 days: 6
  Number of survival after 3 days: 6
  Number of survival after 4 days: 6
  Number of survival after 5 days: 6
Goldfish [6]; 7 days
  Mortality: 0%
Goldfish [6]; day 0: 5 fish
  Number of the survival after 1 day from administration: 5
  Number of the survival after 2 days from administration: 5
  Number of the survival after 3 days from administration: 5
  Number of the survival after 4 days from administration: 5
  Number of the survival after 5 days from administration: 5
  Number of the survival after 6 days from administration: 5
  Number of the survival after 7 days from administration: 5
eels
  survival and external appearance: All eels survived without abnormality of their external appearance
[7]
  LC50 at 120 h: 10.1 µg/mL (≈ 35.1 µM)
Goldfish [8]; bathing conc. 4 μg/ml
  Mortality: 0%
  Number of the survival after 1 day: 6
  Number of the survival after 2 days: 6
  Number of the survival after 3 days: 6
  Number of the survival after 4 days: 6
  Number of the survival after 5 days: 6
Goldfish [8]; bathing conc. 8 μg/ml
  Mortality: 20%
  Number of the survival after 1 day: 6
  Number of the survival after 2 days: 6
  Number of the survival after 3 days: 5
  Number of the survival after 4 days: 5
  Number of the survival after 5 days: 5
Goldfish [8]; bathing conc. 16 μg/ml
  Mortality: 100%
  Number of the survival after 1 day: 6
  Number of the survival after 2 days: 6
  Number of the survival after 3 days: 1
  Number of the survival after 4 days: 0
[9]
  eels survived: 80%
[10]
  rate of survival: 100%
